What was measured:
[1] = system: HSV-1; experiment: HSV plaque reduction assay in Vero cells (HSV-1); assay type: cell-based, Herpes Simplex Virus; conditions: mean of two determinations
Description: (§1) Dextrin sulphate was added to the cell culture and then removed following an incubation period. Virus was then added as it is thought that dextrin sulphate attaches to cell receptors, thereby blocking subsequent viral entry. Following incubation with virus, dextrin sulphate in carboxylmethyl cellulose was added. This medium was used to form a gel layer to prevent any intracellular virus (that has bypassed the dextrin sulphate-cell receptor blocking interaction) from further infecting other cells.
(§2) • (i) Seed 24 well cell culture plates with Vero cells (2×10^5 cells/ml/well). Prepare one plate per virus plus 2 plates for controls. • (ii) Grow cells to confluency overnight at 37° in 5% CO2. • (iii) Dilute virus as calculated to give about 100 plaques per well, a minimum volume of 5 ml per plate.
Plate Layout. Dextrin sulphate (D.S.) concentrations are in mg per ml.
• (iv) Pipette cell medium off all wells except the cell control wells. • (v) Inoculate the appropriate well with 1 ml Dextrin sulphate made up in Minimum Essential Medium as per above layout. • (vi) Incubate the plate at 37° C. in CO2 incubator for 1 hour. • (vii) Remove Dextrin sulphate. • (viii) Inoculate 200 μl of virus dilution per well. • (ix) Incubate the plate at 37° C. in CO2 incubator for 1 hour. • (x) Add 1 ml Dextrin sulphate in CMC to appropriate wells, incubate the plates at 37° C. in CO2 incubator for 60 hours. • (xi) Fix with 10% formalin in PBS by topping up the wells, leave for a minimum of 1 hour. • (xii) Decant formalin, rinse plate in water, stain with crystal violet for 5-10 mins, rinse and drain. Leave plates to dry before counting.
(xiii) Count plaques, calculate IC50 by Grafit.

[2] = system: HSV-2; experiment: HSV plaque reduction assay in Vero cells (HSV-2); assay type: cell-based, Herpes Simplex Virus; conditions: mean of two determinations
Description: as §1, §2
Plate Layout. Dextrin sulphate (D.S.) concentrations are in mg per ml. […]

[3] = system: Chlamydia trachomatis Sa2f strain; experiment: Chlamydia trachomatis cell culture assay (inclusion bodies in McCoy cell monolayers); assay type: cell-based
Description: McCoy cell monolayers were prepared on coverslips in plastic Bijoux. Cells were infected with Chlamydia trachomatis either alone or in the presence of dextrin sulphate. The Sa2f strain of C. trachomatis was used. Sa2f, which causes lymphogranuloma venereum, is similar to C. trachomatis. It is a heavily passaged laboratory strain which can infect McCoy cells without the need for spinning (for most strains of C. trachomatis, it is necessary to spin the cells onto the monolayers in the presence of cyclohexamide in order for infection of the monolayers to occur).
After incubation, coverslips were fixed and stained for C. trachomatis. The number of inclusion bodies per coverslip was estimated by fluorescence microscopy.

Q: How did the IC50 ([1]; DM-21, Laboratory HSB-1 ACV resistant) turn out when dextrin sulphate was run?
A: 0.91 mg/mL

Q: And the IC50 ([1]; HSV-1 ACV resistant)?
A: 2.77 mg/mL

Q: And the IC50 ([1]; HSV-1 ACV sensitive)?
A: 1.13 mg/mL

Q: And the IC50 ([1]; SC-16, Laboratory HSV-1 ACV sensitive)?
A: 0.33 mg/mL

Q: What about the IC50 ([2]; HSV-2 ACV resistant) of the same substance?
A: 0.004 mg/mL

Q: And the IC50 ([2]; HSV-2 ACV sensitive)?
A: 0.11 mg/mL

Q: And the “Inhibition (Expt. 2.1.1)” value ([3]; Sa2f preincubated with dextrin sulphate before infecting the cell line)?
A: inhibition by dextrin

Q: And the “Inhibition (Expt. 2.1.2)” value ([3]; dextrin sulphate preincubated with the cell line before infection with Sa2f)?
A: inhibition by dextrin

Q: And the “course of inhibitory activity (Expt. 2.3.1)” value ([3]; larger infecting doses of Sa2f (400 inclusion bodies in 30 fields))?
A: plateaued off

Q: What about the “course of inhibitory activity (Expt. 2.3.2)” value ([3]; lower infecting doses (40 inclusion bodies in 30 fields)) of the same substance?
A: plateaued off

Q: And the “inhibition (Expt. 2.3.2)” value ([3]; lower infecting doses (40 inclusion bodies in 30 fields), dextrin sulphate 1000 μg/ml)?
A: b) 80-90% inhibition

Q: What about the “Inhibition (Expt. 2.3)” value ([3]; use of different infecting doses of Sa2f) of the same substance?
A: inhibition by dextrin
